Experiments:
[1] = test system: morphine-induced gastrointestinal transit inhibition; experiment: Influence on morphine-induced inhibitory action against transport competence of gastrointestinal tract (carbon powder transfer rate); format: in vivo; details: mouse, 15 min before morphine 3 mg/kg s.c.
Description: After weighing each test compound, 0.5% methylcellulose (methylcellulose: Wako Pure Chemicals, water for injection: Otsuka Pharmaceutical Factory) was added, and the obtained mixture was well stirred to prepare solutions containing the test compound at final concentrations of 3 mg/mL, 1 mg/mL and 0.3 mg/mL, respectively.
After weighing each test compound, 5% xylitol (Kylit injection (registered trademark), Otsuka Pharmaceutical Factory) was added and the mixture was well stirred to prepare solutions containing the test compound at a final concentration of 1 mg/mL. The solutions having concentrations of 0.3 mg/mL and 0.1 mg/mL, respectively, were prepared by diluting the solution having the concentration of 1 mg/mL.
Preparation Method: After weighing, physiological saline was added and the mixture was well stirred to prepare a solution having a concentration of 0.3 mg/mL.
• Crj:CD-1(ICR) mouse (SPF, male, 5-week old, body weight: 25.6-32.0 g (oral administration), 26.3-33.0 g (subcutaneous administration), Charles River Laboratories Japan)
• Control Group: 8 animals; Solvent-administered Group: 8 animals; Compound 1: 3, 10 and 30 mg/kg Groups: each 8 animals; Compound 2: 3, 10 and 30. mg/kg Groups: each 8 animals; Compound 3: 3, 10 and 30 mg/kg Groups: each 8 animals
• Control Group: 8 animals, Solvent-administered Group: 8 animals; Compound 1: 3, 10 and 30 mg/kg Groups: each 8 animals; Compound 2: 3, 10 and 30 mg/kg Groups: each 8 animals; Compound 3: 3, 10 and 30 mg/kg Groups: each 8 animals
• Administration volume: 10 mL/kg • Administration Method: Oral administration was carried out using a disposable syringe and an oral feeding tube.
Subcutaneous administration was carried out using a disposable syringe and a disposable injection needle. • Administration Frequency: single
Mice fasted overnight from the evening on one day before the test were used. Each test compound was administered, and 15 minutes later, morphine (3 mg/kg) was subcutaneously administered. 30 minutes after the administration of morphine, carbon powder (a suspension containing 5% of carbon powder suspended in 10% gum Arabic) was orally administered to each mouse in an amount of 0.1 mL, and the transfer rate (the distance which the carbon powder reached/the distance between the pylorus to cecum opening×100) was measured at 30 minutes after the administration of carbon powder. To the solvent-administered group, a solvent (methylcellulose or xylitol) was administered in place of the test substance solution. To the control group, none of the test substance, morphine and the solvent was administered and the transfer rate of the carbon powder was measured.

[2] = test system: morphine-induced small intestine transit inhibition; experiment: Influence on morphine-induced small intestine transit inhibition (Evans blue test meal); format: in vivo; details: rat
Description: Using aqueous 0.5 w/v % Evans blue solution, 2.5 w/v % carboxymethylcellulose salt solution was prepared and used as the test meal.
Male Wistar rats (Crj. Wistar, Charles River Laboratories Japan, 6 to 7-week old) were used. The rats were fasted from not less than 20 hours before the beginning of the test, and water was given ad libitum.
The compound (I-1) synthesized in Example 1 was dissolved in a solvent (DMAA/Solutol/5% meglumine=15/15/70) • DMAA: N,N-dimethylacetamide (Kanto Chemical) • Solutol: Solutol (registered trademark) HS15 (BASF) • Meglumine: D(−)-N-methylglucamin (Merck)
Morphine hydrochloric acid salt (Dainippon Pharma) was dissolved in normal saline.
All of the test substance, solvent and morphine were administered in avolume of 2 mL/kg.
Each test substance in an amount of 0.03, 0.1, 0.3, 1 or 3 mg/kg (Test Substance—administered Groups) or the above-described solvent (Solvent-administered Group) was subcutaneously administered, and 75 minutes later, 3 mg/kg of morphine was subcutaneously administered to all groups. […]
The test meal in an amount of 2 mL/rat was orally administered at 30 minutes after the administration of morphine. […] The distance between the cardia and the ileocecum (full length of small intestine), and the distance up to the tip of the pigment (moving distance of the pigment) were measured. […]

[3] = test substance 1 mg/kg subcutaneous
[4] = test substance 3 mg/kg subcutaneous
[5] = test substance 10 mg/kg subcutaneous

Row | Compound | Transfer Rate of Carbon Powder (%) [1, 3] | Transfer Rate of Carbon Powder (%) [1, 4] | Transfer Rate of Carbon Powder (%) [1, 5] | Transfer Rate of Carbon Powder (%) ([1]; test substance 3 mg/kg oral) | Transfer Rate of Carbon Powder (%) ([1]; test substance 10 mg/kg oral) | Transfer Rate of Carbon Powder (%) ([1]; test substance 30 mg/kg oral) | ED50 against morphine-induced small intestine transit inhibition ([2]; test substance s.c. 75 min before morphine 3 mg/kg s.c., calculated from % MPE) | antagonistic action against morphine-induced small intestine transit inhibition ([2]; test substance s.c., morphine 3 mg/kg s.c.)
1 | Cc1ccc(/C=C2\C[C@@]3(O)[C@H]4Cc5ccc(O)c6c5[C@@]3(CCN4CC3CC3)[C@@H](O6)C2=O)cc1 [Compound 3] | 32 ± 2% | 43 ± 1 % | 53 ± 3 % | – | – | – | – | –
2 | Cn1c2c(c3ccccc31)C[C@@]1(O)[C@H]3Cc4ccc(O)c5c4[C@@]1(CCN3CC1CC1)[C@H]2O5 [Compound 1] | 41 ± 2 % | 43 ± 3 % | 46 ± 3 % | 38 ± 2 % | 35 ± 2 % | 40 ± 2 % | – | –
3 | CCOC(=O)c1ccc2c3c([nH]c2c1)[C@@H]1Oc2c(O)ccc4c2[C@@]12CCN(CC1CC1)[C@H](C4)[C@]2(O)C3 [Compound 2] | 35 ± 3% | 53 ± 3 % | 55 ± 2 % | 43 ± 2 % | 38 ± 2 % | 52 ± 3 % | – | –
4 | O=C(O)c1ccc2c3c([nH]c2c1)[C@@H]1Oc2c(O)ccc4c2[C@@]12CCN(CC1CC1)[C@H](C4)[C@]2(O)C3 [Compound I-1, 17-cyclopropylmethyl-6,7-didehydro-4,5α-epoxy-3,14β-dihydroxy-6′-carboxy-6,7-2′,3′-indolomorphinan] | – | – | – | – | – | – | 0.29 mg/kg | exhibited antagonistic action

Reference: patent publication US20090069363A1, “Therapeutic Agent for Constipation” (SHIONOGI & CO. LTD. A LEGAL ENTITY OF JAPAN, priority 2004, published 2009)
